Results from US20240116951A1, “HETEROCYCLIC COMPOUNDS AND USES THEREOF” (Kumquat Biosciences Inc., priority 2022, published 2024).

Experiments:
Assay type in all cases: binding
[1] = biological target: T1, KRAS G12S (Homo sapiens, UniProt P01116, G12S); assay: HTRF assay of K-Ras G12S interaction with SOS1 (PPI-HTRF); details: 5 nM KRAS G12S, read-out: PPI-HTRF-5 nM KRAS G12S
T1 construct: made in house; host or cells: E. coli, e.g. BL21 (DE3)
In short: (§1)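 GST-KRas + antiGST-Eu(K); His-hSOS1 + anti-6His-XL665. Buffer ~5 mM HEPES pH 7.4/150 mM NaCl/1 mM DTT/0.05% BSA/0.0025% Igepal. Cpd in DMSO, duplicates 10–0.01 μM; ≥10 min incubation, HTRF 620/665 nm, IC50 from ratio.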

[2] = biological target: T2, KRAS G12D (Homo sapiens, UniProt P01116, G12D); assay: HTRF assay of K-Ras G12D interaction with SOS1 (PPI-HTRF); details: HTRF, 5 nM KRAS G12D; read-out: PPI-HTRF-5 nM KRAS G12D
T2 construct: made in house; host or cells: E. coli, e.g. BL21 (DE3)
In short: as §1

[3] = biological target: T3, KRAS WT (Homo sapiens, UniProt P01116); assay: HTRF assay of wildtype K-Ras interaction with SOS1 (PPI-HTRF); details: HTRF, 5 nM KRAS WT; read-out: PPI-HTRF-5 nM KRAS WT
T3 construct: made in house; host or cells: E. coli, e.g. BL21 (DE3)
In short: as §1

T2 sequence (P01116 1-188 isoform P01116-2 G12D): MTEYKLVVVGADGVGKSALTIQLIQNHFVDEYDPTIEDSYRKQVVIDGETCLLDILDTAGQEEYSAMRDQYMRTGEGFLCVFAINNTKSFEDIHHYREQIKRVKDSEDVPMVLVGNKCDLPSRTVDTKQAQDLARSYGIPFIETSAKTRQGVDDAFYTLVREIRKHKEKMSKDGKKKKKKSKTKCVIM
T1 sequence (P01116 1-188 isoform P01116-2 G12S): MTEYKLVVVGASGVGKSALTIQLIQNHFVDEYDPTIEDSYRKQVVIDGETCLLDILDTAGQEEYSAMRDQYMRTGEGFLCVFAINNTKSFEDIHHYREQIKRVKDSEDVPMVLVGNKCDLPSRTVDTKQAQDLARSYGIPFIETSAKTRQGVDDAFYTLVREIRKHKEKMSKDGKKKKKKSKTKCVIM
T3 sequence (P01116 1-188 isoform P01116-2): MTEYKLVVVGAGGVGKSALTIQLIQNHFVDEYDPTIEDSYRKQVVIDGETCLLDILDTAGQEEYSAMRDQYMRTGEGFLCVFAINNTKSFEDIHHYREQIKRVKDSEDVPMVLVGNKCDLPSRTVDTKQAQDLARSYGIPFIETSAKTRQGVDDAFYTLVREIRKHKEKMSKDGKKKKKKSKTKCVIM

Compound | IC50 [1] [µM] | IC50 [2] [µM] | IC50 [3] [µM]
Nc1nc2c(-c3c(Cl)cc4c(N5CCCC6(CCCN6C(=O)n6cncn6)C5)nc(OC[C@@]56CCCN5C[C@H](F)C6)nc4c3F)ccc(F)c2s1 (stereo partly drawn) [Compound 211, (7-(7-(2-amino-7-fluorobenzo[d]thiazol-4-yl)-6-chloro-8-fluoro-2-(((2R,7aS)-2-fluorotetrahydro-1H-pyrrolizin-7a(5H)-yl)methoxy)quinazolin-4-yl)-1,7-diazaspiro[4.5]decan-1-yl)(1H-1,2,4-triazol-1-yl)methanone] | < 5 | < 5 | < 5
N#Cc1c(N)sc2c(F)ccc(-c3c(Cl)cc4c(N5CCC6(CCN6C=O)C5)nc(OC[C@@]56CCCN5C[C@H](F)C6)nc4c3F)c12 (stereo partly drawn) [Compound 227, 2-amino-4-(6-chloro-8-fluoro-2-(((2R,7aS)-2-fluorotetrahydro-1H-pyrrolizin-7a(5H)-yl)methoxy)-4-(1-formyl-1,6-diazaspiro[3.4]octan-6-yl)quinazolin-7-yl)-7-fluorobenzo[b]thiophene-3-carbonitrile] | < 5 | < 5 | < 5
C[C@H](Oc1nc(N2CCC3(CCN3C(=O)C3CC3(F)F)C2)c2cc(Cl)c(-c3ccc(F)c4sc(N)c(C#N)c34)c(F)c2n1)[C@@H]1CCCN1C (stereo partly drawn) [Compound 280, 2-amino-4-(6-chloro-4-(1-(2,2-difluorocyclopropane-1-carbonyl)-1,6-diazaspiro[3.4]octan-6-yl)-8-fluoro-2-((S)-1-((S)-1-methylpyrrolidin-2-yl)ethoxy)quinazolin-7-yl)-7-fluorobenzo[b]thiophene-3-carbonitrile] | < 5 | < 5 | < 5
Nc1nc2c(-c3c(Cl)cc4c(N5CCCC6(CCCN6)C5)nc(OC[C@@]56CCCN5C[C@H](F)C6)nc4c3F)ccc(F)c2s1 (stereo partly drawn) [Compound 219, 4-(6-chloro-8-fluoro-2-(((2R,7aS)-2-fluorotetrahydro-1H-pyrrolizin-7a(5H)-yl)methoxy)-4-(1,7-diazaspiro[4.5]decan-7-yl)quinazolin-7-yl)-7-fluorobenzo[d]thiazol-2-amine] | < 5 | < 5 | < 5
Cc1ncn(C(=O)N2CC[C@]23CCN(c2nc(OC[C@@]45CCCN4C[C@H](F)C5)nc4c(F)c(-c5ccc(F)c6sc(N)c(C#N)c56)c(Cl)cc24)C3)n1 [Compound 222, 2-amino-4-(6-chloro-8-fluoro-2-(((2R,7aS)-2-fluorotetrahydro-1H-pyrrolizin-7a(5H)-yl)methoxy)-4-((S)-1-(3-methyl-1H-1,2,4-triazole-1-carbonyl)-1,6-diazaspiro[3.4]octan-6-yl)quinazolin-7-yl)-7-fluorobenzo[b]thiophene-3-carbonitrile] | < 5 | < 5 | < 5
N#Cc1c(N)sc2c(F)ccc(-c3c(Cl)cc4c(N5CCC6(CCCCN6C(=O)n6cncn6)C5)nc(OC[C@@]56CCCN5C[C@H](F)C6)nc4c3F)c12 (stereo partly drawn) [Compound 216, 4-(4-(6-(1H-1,2,4-triazole-1-carbonyl)-2,6-diazaspiro[4.5]decan-2-yl)-6-chloro-8-fluoro-2-(((2R,7aS)-2-fluorotetrahydro-1H-pyrrolizin-7a(5H)-yl)methoxy)quinazolin-7-yl)-2-amino-7-fluorobenzo[b]thiophene-3-carbonitrile] | < 5 | < 5 | < 5
Cc1cc(N)nc(-c2c(Cl)cc3c(N4CCC5(CCN5C(=O)n5cncn5)C4)nc(OC[C@@]45CCCN4C[C@H](F)C5)nc3c2F)c1C(F)(F)F (stereo partly drawn) [Compound 286, (6-(7-(6-amino-4-methyl-3-(trifluoromethyl)pyridin-2-yl)-6-chloro-8-fluoro-2-(((2R,7aS)-2-fluorotetrahydro-1H-pyrrolizin-7a(5H)-yl)methoxy)quinazolin-4-yl)-1,6-diazaspiro[3.4]octan-1-yl)(1H-1,2,4-triazol-1-yl)methanone] | < 5 | < 5 | < 5
N#Cc1c(N)sc2c(F)ccc(-c3c(Cl)cc4c(N5CC[C@@]6(CCN6C(=O)n6cnc(Cl)n6)C5)nc(OC[C@@]56CCCN5C[C@H](F)C6)nc4c3F)c12 (atropisomer, axis not shown; (aS)) [Compound 225, 2-amino-4-((R)-6-chloro-4-((R)-1-(3-chloro-1H-1,2,4-triazole-1-carbonyl)-1,6-diazaspiro[3.4]octan-6-yl)-8-fluoro-2-(((2R,7aS)-2-fluorotetrahydro-1H-pyrrolizin-7a(5H)-yl)methoxy)quinazolin-7-yl)-7-fluorobenzo[b]thiophene-3-carbonitrile] | < 5 | < 5 | < 5
C[C@H](Oc1nc(N2CCCC3(CCN3C(=O)c3ccnn3C)C2)c2cc(Cl)c(-c3ccc(F)c4sc(N)c(C#N)c34)c(F)c2n1)[C@@H]1CCCN1C (stereo partly drawn) [Compound 282, 2-amino-4-(6-chloro-8-fluoro-4-(1-(1-methyl-1H-pyrazole-5-carbonyl)-1,6-diazaspiro[3.5]nonan-6-yl)-2-((S)-1-((S)-1-methylpyrrolidin-2-yl)ethoxy)quinazolin-7-yl)-7-fluorobenzo[b]thiophene-3-carbonitrile] | < 5 | < 5 | < 5
N#Cc1c(N)sc2c(F)ccc(-c3c(Cl)cc4c(N5CCC6(C5)NCC6(F)F)nc(OC[C@@]56CCCN5C[C@H](F)C6)nc4c3F)c12 (stereo partly drawn) [Compound 232, 2-amino-4-(6-chloro-4-(3,3-difluoro-1,6-diazaspiro[3.4]octan-6-yl)-8-fluoro-2-(((2R,7aS)-2-fluorotetrahydro-1H-pyrrolizin-7a(5H)-yl)methoxy)quinazolin-7-yl)-7-fluorobenzo[b]thiophene-3-carbonitrile] | < 5 | < 5 | < 5
COCC(=O)N1CCC12CCN(c1nc(O[C@@H](C)[C@@H]3CCCN3C)nc3c(F)c(-c4ccc(F)c5sc(N)c(C#N)c45)c(Cl)cc13)C2 (stereo partly drawn) [Compound 254, 2-amino-4-(6-chloro-8-fluoro-4-(1-(2-methoxyacetyl)-1,6-diazaspiro[3.4]octan-6-yl)-2-((S)-1-((S)-1-methylpyrrolidin-2-yl)ethoxy)quinazolin-7-yl)-7-fluorobenzo[b]thiophene-3-carbonitrile] | < 5 | < 5 | < 5
Nc1nc2c(-c3ccc4c(N5CC6(CNCCN6)C5)nc(OC[C@@]56CCCN5C[C@H](F)C6)nc4c3F)ccc(F)c2s1 [Compound 253, 7-fluoro-4-(8-fluoro-2-(((2R,7aS)-2-fluorotetrahydro-1H-pyrrolizin-7a(5H)-yl)methoxy)-4-(2,5,8-triazaspiro[3.5]nonan-2-yl)quinazolin-7-yl)benzo[d]thiazol-2-amine] | > 5 | > 5 | < 5

Further lines, results first:

IC50 [1] [µM] | IC50 [2] [µM] | IC50 [3] [µM] | Compound
< 5 | > 5 | > 5 | N#Cc1c(N)sc2c(F)ccc(-c3c(Cl)cc4c(N5CC6(CCN6C(=O)n6cnc(Cl)n6)CC5C(F)F)nc(OC[C@@]56CCCN5C[C@H](F)C6)nc4c3F)c12 (stereo partly drawn) [Compound 323, 2-amino-4-(6-chloro-4-(1-(3-chloro-1H-1,2,4-triazole-1-carbonyl)-7-(difluoromethyl)-1,6-diazaspiro[3.4]octan-6-yl)-8-fluoro-2-(((2R,7aS)-2-fluorotetrahydro-1H-pyrrolizin-7a(5H)-yl)methoxy)quinazolin-7-yl)-7-fluorobenzo[b]thiophene-3-carbonitrile]
< 5 | < 5 | < 5 | Cc1nc(Cl)n(C(=O)N2CCC23CCN(c2nc(OC[C@@]45CCCN4C[C@H](F)C5)nc4c(F)c(-c5ccc(F)c6sc(N)c(C#N)c56)c(Cl)cc24)C3)n1 (stereo partly drawn) [Compound 311, 2-amino-4-(6-chloro-4-(1-(5-chloro-3-methyl-1H-1,2,4-triazole-1-carbonyl)-1,6-diazaspiro[3.4]octan-6-yl)-8-fluoro-2-(((2R,7aS)-2-fluorotetrahydro-1H-pyrrolizin-7a(5H)-yl)methoxy)quinazolin-7-yl)-7-fluorobenzo[b]thiophene-3-carbonitrile]
< 5 | < 5 | < 5 | CN(C)CC1(COc2nc(N3CCC4(CCN4C(=O)n4cncn4)C3)c3cc(Cl)c(-c4ccc(F)c5sc(N)c(C#N)c45)c(F)c3n2)CC1 (stereo not drawn) [Compound 315, 4-(4-(1-(1H-1,2,4-triazole-1-carbonyl)-1,6-diazaspiro[3.4]octan-6-yl)-6-chloro-2-((1-((dimethylamino)methyl)cyclopropyl)methoxy)-8-fluoroquinazolin-7-yl)-2-amino-7-fluorobenzo[b]thiophene-3-carbonitrile]
< 5 | < 5 | < 5 | N#Cc1c(N)sc2c(F)ccc(-c3c(Cl)cc4c(N5CCC6(CCN6C#N)C5)nc(OC[C@@]56CCCN5C[C@H](F)C6)nc4c3F)c12 (stereo partly drawn) [Compound 303, 6-(7-(2-amino-3-cyano-7-fluorobenzo[b]thiophen-4-yl)-6-chloro-8-fluoro-2-(((2R,7aS)-2-fluorotetrahydro-1H-pyrrolizin-7a(5H)-yl)methoxy)quinazolin-4-yl)-1,6-diazaspiro[3.4]octane-1-carbonitrile]
< 5 | < 5 | < 5 | N#Cc1c(N)sc2c(F)ccc(-c3c(Cl)cc4c(N5CCC6(CCN6C(=O)n6nccc6C#N)C5)nc(OC[C@@]56CCCN5C[C@H](F)C6)nc4c3F)c12 (stereo partly drawn) [Compound 290, 1-(6-(7-(2-amino-3-cyano-7-fluorobenzo[b]thiophen-4-yl)-6-chloro-8-fluoro-2-(((2R,7aS)-2-fluorotetrahydro-1H-pyrrolizin-7a(5H)-yl)methoxy)quinazolin-4-yl)-1,6-diazaspiro[3.4]octane-1-carbonyl)-1H-pyrazole-5-carbonitrile]
